Source: paper PMC10584170, “Machine learning-based phenotypic imaging to characterise the targetable biology of Plasmodium falciparum male gametocytes for the development of transmission-blocking antimalarials” (PLOS Pathogens, 2023)

Key:
[1] = tested on: P. falciparum female gametocytes; test: P. falciparum Dual Gamete Formation Assay (PfDGFA), female readout (Pfs25-positive female gametes); format: cell-based, Plasmodium falciparum NF54; settings: for Average inhibition female (%): average of replicates; for % inhibition female (individual replicates) R1: replicate R1; for % inhibition female (individual replicates) R3: replicate R3; for % inhibition female (individual replicates) R4: replicate R4
How it was run: (§1)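 Read-outs are automated image counts of exflagellation centres (brightfield, 10 frames over 1 s) and Pfs25-positive female gametes (Cy3 fluorescence).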

[2] = tested on: P. falciparum male gametocytes; test: P. falciparum Dual Gamete Formation Assay (PfDGFA), male readout (exflagellation); format: cell-based, Plasmodium falciparum NF54; settings: for Average inhibition male (%): average of replicates; for % inhibition male (individual replicates) R1: replicate R1; for % inhibition male (individual replicates) R3: replicate R3; for % inhibition male (individual replicates) R4: replicate R4; for Activity: hit = >50% inhibition in male or female readout in at least 3 replicates, 0 = no class assigned
How it was run: as §1

[3] = 2µM, 24h preincubation with gametocytes prior to induction of gametogenesis
[4] = 2µM, 24h preincubation, hits selected on >50% inhibition in the female readout across replicates
[5] = 2µM, 24h preincubation, hits selected on >50% inhibition in the male readout across replicates
[6] = PfDGFA at 2µM, 24h preincubation
[7] = PfDGFA at 2µM, 24h preincubation with gametocytes prior to induction of gametogenesis
[8] = PfDGFA at 2µM, 24h preincubation with gametocytes
[9] = number of replicates with >50% inhibition in the female readout, 2µM
[10] = number of replicates with >50% inhibition in the male readout, 2µM
[11] = 2µM, 24h preincubation, number of replicates with >50% inhibition in the female readout
[12] = 2µM, 24h preincubation, number of replicates with >50% inhibition in the male readout

| Compound | Average inhibition female (%) [1, 3] | % inhibition female (individual replicates) R1 [1, 3] | % inhibition female (individual replicates) R3 [1, 3] | % inhibition female (individual replicates) R4 [1, 3] | HitlevelF [1, 4] | Average inhibition male (%) [2, 3] | % inhibition male (individual replicates) R1 [2, 3] | % inhibition male (individual replicates) R3 [2, 3] | % inhibition male (individual replicates) R4 [2, 3] | HitlevelM [2, 5] | Activity [2, 6] | % inhibition female (individual replicates) R1 [1, 7] | % inhibition female (individual replicates) R3 [1, 7] | % inhibition female (individual replicates) R4 [1, 7] | Average inhibition female (%) [1, 6] | % inhibition male (individual replicates) R1 [2, 7] | % inhibition male (individual replicates) R4 [2, 7] | Average inhibition male (%) [2, 6] | further results |
| --- | --- | --- | --- | --- | --- | --- | --- | --- | --- | --- | --- | --- | --- | --- | --- | --- | --- | --- | --- |
| CC(C)(C)c1ccc(-c2cc3c(ccc4nc(N)nc(N)c43)[nH]2)cc1 [TCMDC-137977] | 6.0% | 2.7% | -16.6% | 37.6% | 0 | 2.0% | 6.1% | 0.4% | -0.46% | 0 | 0 |  |  |  |  |  |  |  |  |
| Nc1nc(N)c2c(ccc3c2ccn3Cc2ccccn2)n1 [TCMDC-137980] |  |  |  |  |  |  |  |  |  |  |  | 1.3% | -9.6% | 4.7% | -4.0% | -11.9% | -51.4% | -22.7% |  |
| C=CCn1ccc2c3c(N)nc(N)nc3ccc21 [TCMDC-137995] |  |  |  |  |  |  |  |  |  |  |  | -8.1% | -14.1% | 22.9% | -3.2% | 38.6% | 16.7% | 27.9% | % inhibition male (individual replicates) R3 [2, 7]: 29.0% |
| CCCN(CCC)CCCN(CCCN(CCC)CCC)c1cc(C)nc(Nc2ccc3cc(Br)ccc3c2)n1.Cl [TCMDC-138006] |  |  |  |  |  |  |  |  |  |  |  |  |  |  |  |  |  |  | Average inhibition female (%) [1, 8]: 38.7%; % inhibition female (individual replicates) R1 [1, 8]: 42.6%; % inhibition female (individual replicates) R3 [1, 8]: 25.8%; % inhibition female (individual replicates) R4 [1, 8]: 40.6%; HitlevelF [1, 9]: 0; Average inhibition male (%) [2, 8]: 65.9%; % inhibition male (individual replicates) R1 [2, 8]: 64.4%; % inhibition male (individual replicates) R3 [2, 8]: 70.2%; % inhibition male (individual replicates) R4 [2, 8]: 75.1%; HitlevelM [2, 10]: 4 |
| Cc1ccc2ccncc2c1N [TCMDC-138025] |  |  |  |  |  |  |  |  |  |  |  | -5.1% | -43.7% | -6.6% | -17.6% | 6.2% | 37.3% | 29.9% | % inhibition male (individual replicates) R3 [2, 7]: 45.8% |
| Cc1c(Cc2ccc(C(C)C)cc2)cnc2nc(N)nc(N)c12 [TCMDC-138044] |  |  |  |  |  |  |  |  |  |  |  | 2.8% | -15.2% | -3.9% | -2.8% | 10.0% | -19.8% | -5.8% | % inhibition male (individual replicates) R3 [2, 7]: -13.9% |
| COc1ccc(Cc2cnc3nc(N)nc(N)c3c2C)cc1OC.O=S(=O)(O)CCO [TCMDC-138057] | 4.5% | 12.4% | -12.7% | 12.4% | 0 | -16.7% | 13.3% | -15.1% | -55.1% | 0 | 0 |  |  |  |  |  |  |  |  |
| COc1cccc(Cc2cnc3nc(N)nc(N)c3c2C)c1 [TCMDC-138060] |  |  |  |  |  |  |  |  |  |  |  | -4.3% | -2.0% | 3.5% | -1.4% | 14.7% | -36.5% | 7.0% |  |
| COc1ccc(Cc2c(N)nc3nc(N)nc(N)c3c2C)cc1.Cl [TCMDC-138061] |  |  |  |  |  |  |  |  |  |  |  | -3.3% | 4.2% | -0.2% | 0.4% | 17.1% | -37.2% | 0.0933% |  |
| Cc1nc(N)nc(N)c1CCCOc1ccccc1Br [TCMDC-138069] | 5.9% | 14.2% | 13.3% | -1.6% | 0 | 1.8% | 12.4% | -15.7% | -23.1% | 0 | 0 |  |  |  |  |  |  |  |  |
| Cc1nc(N)nc(N)c1-c1ccc(Br)c([N+](=O)[O-])c1 [TCMDC-138071] | 6.9% | 11.0% | 2.2% | 10.1% | 0 | -11.3% | 15.3% | 5.2% | -48.5% | 0 | 0 |  |  |  |  |  |  |  |  |
| Cl.Clc1ccc(CNCCCCCCCNCc2ccc(Cl)c(Cl)c2)cc1Cl [TCMDC-138075] | 16.8% | 19.3% | 11.6% | 13.1% |  | 58.0% | 51.9% |  | 51.1% |  |  |  |  |  |  |  |  |  | HitlevelF [1, 11]: 0; HitlevelM [2, 12]: 3 |
| CC(=O)c1ccc2nc[nH]c(=O)c2c1 [TCMDC-138172] |  |  |  |  |  |  |  |  |  |  |  |  |  |  |  |  |  |  | Average inhibition female (%) [1, 8]: 55.1%; % inhibition female (individual replicates) R1 [1, 8]: 62.7%; % inhibition female (individual replicates) R3 [1, 8]: 39.9%; % inhibition female (individual replicates) R4 [1, 8]: 66.0%; HitlevelF [1, 9]: 3; Average inhibition male (%) [2, 8]: 79.0%; % inhibition male (individual replicates) R1 [2, 8]: 88.9%; % inhibition male (individual replicates) R3 [2, 8]: 57.7%; % inhibition male (individual replicates) R4 [2, 8]: 96.3%; HitlevelM [2, 10]: 4 |
| COc1cc2nc(N3CCN(C(=O)c4c(Cl)nsc4-c4ccccc4Cl)CC3)nc(N)c2cc1OC.O=C(O)C(F)(F)F [TCMDC-138186] | 23.5% | 19.4% | 2.1% | 50.6% |  | 36.4% | 33.1% | -9.1% | 66.9% |  |  |  |  |  |  |  |  |  | HitlevelF [1, 11]: 1; HitlevelM [2, 12]: 2 |
| Cl.Cn1ccc(-c2cccc(Nc3ccnc4cc(-c5nccs5)ccc34)c2)n1 [TCMDC-138336] | 19.1% | 19.3% | 21.6% | 9.3% |  | 33.2% | 36.9% |  | 5.3% |  |  |  |  |  |  |  |  |  | HitlevelF [1, 11]: 0; HitlevelM [2, 12]: 1 |
| CN(C)CCNCc1ccc(-c2ccc3c(Nc4ccc(Oc5ccccc5)cc4)ccnc3c2)o1 [TCMDC-138399] |  |  |  |  |  |  |  |  |  |  |  |  |  |  |  |  |  |  | Average inhibition female (%) [1, 8]: 26.2%; % inhibition female (individual replicates) R1 [1, 8]: 29.8%; % inhibition female (individual replicates) R3 [1, 8]: 23.6%; % inhibition female (individual replicates) R4 [1, 8]: 16.9%; HitlevelF [1, 9]: 0; Average inhibition male (%) [2, 8]: 74.5%; % inhibition male (individual replicates) R1 [2, 8]: 82.1%; % inhibition male (individual replicates) R3 [2, 8]: 51.0%; % inhibition male (individual replicates) R4 [2, 8]: 85.6%; HitlevelM [2, 10]: 4 |
| CN1CCN(Cc2nc(-c3ccc4c(Nc5ccc(Oc6ccccc6)cc5)ccnc4c3)cs2)CC1 [TCMDC-138409] | 17.5% | 9.4% | 19.5% | 18.6% | 0 | 49.4% | 33.1% | 19.5% | 56.9% | 2 | 0 |  |  |  |  |  |  |  |  |
| CN1CCN(Cc2nc(-c3ccc4c(Nc5ccc(F)c(O)c5)ccnc4c3)cs2)CC1 [TCMDC-138439] | 3.7% | 13.1% | -10.3% | 4.9% | 0 | 3.8% | -1.6% | 1.0% | 20.9% | 0 | 0 |  |  |  |  |  |  |  |  |
